Molecules are shown by their SMILES. The source made the active and inactive calls. The rule behind the calls is not given here.

Two molecules from ChEMBL document CHEMBL1151315, “Baicalein, an alpha-glucosidase inhibitor from Scutellaria baicalensis” (J Nat Prod, 1998) can be followed below.

Assay [1] concerns the target Sucrase-isomaltase, intestinal (Rattus norvegicus) (UniProt P23739). The settings on record: Caco-2, 21 uM.
Description: Inhibition of rat intestinal sucrase expressed in human Caco-2 cells at 21 uM
The target in assay [2] is T1, Sucrase-isomaltase, intestinal (Homo sapiens, UniProt P14410). As to the kind of experiment: Inhibition of human intestinal sucrase in human Caco-2 cell membrane at 25 uM.
Target sequence in this assay (P14410 2-1007 limits assumed): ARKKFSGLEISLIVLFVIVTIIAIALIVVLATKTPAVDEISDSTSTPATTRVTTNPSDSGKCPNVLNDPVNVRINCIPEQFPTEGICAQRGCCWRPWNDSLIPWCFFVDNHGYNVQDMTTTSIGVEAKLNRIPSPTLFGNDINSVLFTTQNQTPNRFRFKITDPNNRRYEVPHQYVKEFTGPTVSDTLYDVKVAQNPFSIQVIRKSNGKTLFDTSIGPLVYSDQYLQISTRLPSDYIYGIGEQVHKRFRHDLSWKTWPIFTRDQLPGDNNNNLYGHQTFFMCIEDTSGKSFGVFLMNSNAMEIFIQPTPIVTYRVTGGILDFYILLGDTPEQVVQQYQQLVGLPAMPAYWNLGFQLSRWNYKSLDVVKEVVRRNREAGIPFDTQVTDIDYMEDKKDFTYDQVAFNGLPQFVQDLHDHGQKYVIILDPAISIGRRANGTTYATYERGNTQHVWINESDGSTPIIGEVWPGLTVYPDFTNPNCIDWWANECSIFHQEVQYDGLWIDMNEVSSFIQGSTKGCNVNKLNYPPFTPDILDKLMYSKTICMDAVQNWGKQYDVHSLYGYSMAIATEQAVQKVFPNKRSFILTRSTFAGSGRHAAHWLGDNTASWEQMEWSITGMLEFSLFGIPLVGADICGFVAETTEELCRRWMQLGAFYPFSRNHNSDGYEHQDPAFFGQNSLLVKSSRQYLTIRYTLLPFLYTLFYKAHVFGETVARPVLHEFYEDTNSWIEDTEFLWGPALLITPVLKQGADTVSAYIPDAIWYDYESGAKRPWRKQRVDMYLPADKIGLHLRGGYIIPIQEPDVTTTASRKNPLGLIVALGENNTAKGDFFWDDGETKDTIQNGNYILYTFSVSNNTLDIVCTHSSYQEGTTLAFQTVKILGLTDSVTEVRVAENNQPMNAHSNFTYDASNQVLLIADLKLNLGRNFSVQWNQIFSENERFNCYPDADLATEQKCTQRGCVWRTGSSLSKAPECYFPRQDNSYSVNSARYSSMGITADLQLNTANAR
Target sequence in this assay (P14410 1008-1827 limits assumed): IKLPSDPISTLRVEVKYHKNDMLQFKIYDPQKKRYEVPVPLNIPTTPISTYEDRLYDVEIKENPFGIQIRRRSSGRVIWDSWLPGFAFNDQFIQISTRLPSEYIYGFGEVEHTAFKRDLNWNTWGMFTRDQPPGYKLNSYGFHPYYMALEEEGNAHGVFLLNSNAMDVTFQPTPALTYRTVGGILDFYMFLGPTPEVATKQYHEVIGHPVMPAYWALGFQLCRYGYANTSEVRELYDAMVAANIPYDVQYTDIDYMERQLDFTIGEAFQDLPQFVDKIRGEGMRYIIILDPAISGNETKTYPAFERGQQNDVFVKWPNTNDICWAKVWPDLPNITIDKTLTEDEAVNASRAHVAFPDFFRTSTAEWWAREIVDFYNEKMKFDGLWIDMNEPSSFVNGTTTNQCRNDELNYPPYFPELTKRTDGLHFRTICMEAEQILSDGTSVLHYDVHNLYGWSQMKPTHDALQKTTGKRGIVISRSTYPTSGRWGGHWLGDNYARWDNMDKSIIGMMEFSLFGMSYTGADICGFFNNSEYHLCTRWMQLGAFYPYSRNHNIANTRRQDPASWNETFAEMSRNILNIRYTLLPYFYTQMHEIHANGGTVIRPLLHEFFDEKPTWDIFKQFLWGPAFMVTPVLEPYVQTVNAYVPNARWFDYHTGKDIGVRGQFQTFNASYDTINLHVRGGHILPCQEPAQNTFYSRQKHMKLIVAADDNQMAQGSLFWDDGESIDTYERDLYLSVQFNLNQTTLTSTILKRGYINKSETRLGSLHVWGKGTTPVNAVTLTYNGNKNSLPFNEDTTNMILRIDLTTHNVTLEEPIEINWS
In assay [3] the target is T1, Sucrase-isomaltase, intestinal. The assay can be described thus: Inhibition of human intestinal sucrase in human Caco-2 cell membrane. In kind it is cell-based.
Target sequence in this assay (P14410 2-1007 limits assumed): as the sequence (P14410 2-1007 limits assumed) above
Target sequence in this assay (P14410 1008-1827 limits assumed): as the sequence (P14410 1008-1827 limits assumed) above
Assay [4] has the same target. The assay can be described thus: Inhibition of human intestinal sucrase.
Assay [5] deals with Sucrase-isomaltase, intestinal (Rattus norvegicus, UniProt P23739). The assay can be described thus: Inhibition of rat intestinal sucrase.
Chain of Sucrase-isomaltase, intestinal (Rattus norvegicus, UniProt P23739) (P23739 1-1013 limits assumed): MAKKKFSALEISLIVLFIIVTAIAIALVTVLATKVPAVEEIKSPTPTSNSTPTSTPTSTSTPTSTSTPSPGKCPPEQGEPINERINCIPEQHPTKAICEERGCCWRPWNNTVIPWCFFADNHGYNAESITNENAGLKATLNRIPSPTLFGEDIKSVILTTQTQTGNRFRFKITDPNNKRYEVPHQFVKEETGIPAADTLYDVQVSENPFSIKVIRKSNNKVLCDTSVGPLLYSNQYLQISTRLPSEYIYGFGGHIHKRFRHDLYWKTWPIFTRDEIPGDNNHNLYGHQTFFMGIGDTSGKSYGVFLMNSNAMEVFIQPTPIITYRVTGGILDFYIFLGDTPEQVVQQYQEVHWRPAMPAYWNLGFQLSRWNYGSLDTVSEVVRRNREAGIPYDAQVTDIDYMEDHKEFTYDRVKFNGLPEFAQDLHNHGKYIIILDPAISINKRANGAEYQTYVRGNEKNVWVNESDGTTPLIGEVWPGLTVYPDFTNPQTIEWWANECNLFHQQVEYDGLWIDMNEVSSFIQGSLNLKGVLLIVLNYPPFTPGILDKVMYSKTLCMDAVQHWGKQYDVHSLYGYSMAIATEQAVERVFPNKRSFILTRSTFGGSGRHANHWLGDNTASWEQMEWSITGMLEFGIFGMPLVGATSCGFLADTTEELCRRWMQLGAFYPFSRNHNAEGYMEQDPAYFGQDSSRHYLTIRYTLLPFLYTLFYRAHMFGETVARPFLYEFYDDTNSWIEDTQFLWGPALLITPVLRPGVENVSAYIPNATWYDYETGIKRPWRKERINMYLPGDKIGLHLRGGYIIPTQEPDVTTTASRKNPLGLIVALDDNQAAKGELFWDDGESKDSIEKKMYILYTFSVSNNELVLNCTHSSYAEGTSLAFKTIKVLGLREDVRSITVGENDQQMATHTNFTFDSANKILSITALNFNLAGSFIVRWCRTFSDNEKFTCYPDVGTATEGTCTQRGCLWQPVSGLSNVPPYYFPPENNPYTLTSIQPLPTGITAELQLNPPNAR
Chain of Sucrase-isomaltase, intestinal (Rattus norvegicus, UniProt P23739) (P23739 1014-1841 limits assumed): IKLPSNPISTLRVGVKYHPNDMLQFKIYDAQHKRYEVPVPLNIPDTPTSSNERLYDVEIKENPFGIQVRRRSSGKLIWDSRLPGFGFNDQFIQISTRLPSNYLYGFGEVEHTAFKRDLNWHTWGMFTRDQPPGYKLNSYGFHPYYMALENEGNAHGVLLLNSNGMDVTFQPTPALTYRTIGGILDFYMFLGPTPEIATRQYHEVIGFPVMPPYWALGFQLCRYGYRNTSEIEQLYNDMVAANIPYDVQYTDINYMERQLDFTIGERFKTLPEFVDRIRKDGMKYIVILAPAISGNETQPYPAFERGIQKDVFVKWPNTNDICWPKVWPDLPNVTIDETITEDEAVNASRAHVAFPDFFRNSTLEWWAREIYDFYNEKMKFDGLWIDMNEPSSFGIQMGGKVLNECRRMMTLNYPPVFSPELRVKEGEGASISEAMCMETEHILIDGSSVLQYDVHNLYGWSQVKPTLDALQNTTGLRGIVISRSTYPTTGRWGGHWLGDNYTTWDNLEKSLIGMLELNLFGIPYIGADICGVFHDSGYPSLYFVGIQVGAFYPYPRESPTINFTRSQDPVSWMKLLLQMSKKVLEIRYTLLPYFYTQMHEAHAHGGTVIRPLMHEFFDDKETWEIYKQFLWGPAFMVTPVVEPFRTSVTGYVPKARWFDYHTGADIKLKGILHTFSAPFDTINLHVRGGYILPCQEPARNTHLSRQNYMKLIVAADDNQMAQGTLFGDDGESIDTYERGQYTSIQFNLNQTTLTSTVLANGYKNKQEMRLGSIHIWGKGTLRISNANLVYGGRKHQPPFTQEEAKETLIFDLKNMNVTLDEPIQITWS

Chain of Sucrase-isomaltase, intestinal (Rattus norvegicus) (P23739 1-1013 limits assumed): as the sequence (P23739 1-1013 limits assumed) above
Chain of Sucrase-isomaltase, intestinal (Rattus norvegicus) (P23739 1014-1841 limits assumed): as the sequence (P23739 1014-1841 limits assumed) above

Broadly, the inhibition is the relative decrease from the control value, in per cent. For the molecule `OC[C@H]1NC[C@H](O)[C@@H](O)[C@@H]1O`, the inhibition in assay [1] stood at 100%; in assay [2], 95%.
Usually IC50 stands for the concentration at which inhibition is half-maximal. Read a high IC50 as weaker potency in that assay. Consider `O=c1cc(-c2ccccc2)oc2cc(O)c(O)c(O)c12` [BAICALEIN], for which the IC50 in assay [3] is 35 µM; in assay [5], 260 µM. Besides, in assay [4], the outcome was Active.
